Publication PMC11775015, “Parishin B blocking TRIB3-AKT1 interaction inhibits breast cancer lung metastasis” (Frontiers in Pharmacology, 2025)

Molecular target: T1, TRIB3 (Tribbles homolog 3) (Homo sapiens, UniProt Q96RU7)
T1 construct: endogenous untagged full-length protein in RIPA lysate of MDA-MB-231 cells, detected by Western blot (anti-TRIB3 Abcam ab75846); NP_066981.2 printed for the homology model
T1 sequence (Q96RU7 1-358): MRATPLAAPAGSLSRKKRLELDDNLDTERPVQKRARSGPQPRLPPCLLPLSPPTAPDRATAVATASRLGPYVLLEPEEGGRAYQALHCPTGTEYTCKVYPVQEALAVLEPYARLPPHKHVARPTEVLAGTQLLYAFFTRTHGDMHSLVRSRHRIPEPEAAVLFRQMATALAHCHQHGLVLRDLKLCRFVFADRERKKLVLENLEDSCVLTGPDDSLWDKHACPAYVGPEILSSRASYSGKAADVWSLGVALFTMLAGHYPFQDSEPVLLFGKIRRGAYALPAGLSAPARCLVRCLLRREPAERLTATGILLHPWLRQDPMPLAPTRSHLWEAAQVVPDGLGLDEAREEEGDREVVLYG
Assay: CETSA (cell lysate, Western blot)
Format: biochemical
Settings: 10 uM PB, 1 h, MDA-MB-231 RIPA lysate; 35-60 C for 10 min

`O=C(O)CC(O)(CC(=O)OCc1ccc(O[C@@H]2O[C@H](CO)[C@@H](O)[C@H](O)[C@H]2O)cc1)C(=O)OCc1ccc(O[C@@H]2O[C@H](CO)[C@@H](O)[C@H](O)[C@H]2O)cc1` (stereo partly shown) [PB, Parishin B] was tested, and the “CETSA (cell lysate, Western blot)” value was “PB enhances the thermal stability of TRIB3, resulting in improved thermal stabilization of TRIB3”.
